From PubChem BioAssay AID2060325 (Molecular Pharmacology Branch, DTP, NCI, 2025)

Test system: SK-OV-3 multi-cell spheroids, viability
Assay: Anticancer human tumor SK-OV-3 cell line growth inhibition [IpAb];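 as to viability, T/C: viability read after seven days of drug exposure; percent of DMSO vehicle control luminescence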
Conditions: for IC50: curve of first compound; for viability, T/C: stronger effect = lower value
Procedure, shortened: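 Spheroids of 60% malignant cells, 25% HUVEC and 15% MSC were exposed to targeted agents combined with ipatasertib or abemaciclib. Doses started at or near clinical Cmax (10 microM when unknown) and fell in half-log steps.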

[1] = second compound 0.1 µM, first compound 0.0316 µM
[2] = second compound 0.1 µM, first compound 0.1 µM
[3] = second compound 0.1 µM, first compound 0.316 µM
[4] = second compound 0.1 µM, first compound 1 µM
[5] = second compound 0.1 µM, first compound 3.16 µM
[6] = second compound 0.1 µM, first compound 10 µM
[7] = second compound 0.316 µM, first compound 0.0316 µM
[8] = second compound 0.316 µM, first compound 0.1 µM
[9] = second compound 0.316 µM, first compound 0.316 µM
[10] = second compound 0.316 µM, first compound 1 µM
[11] = second compound 0.316 µM, first compound 3.16 µM
[12] = second compound 0.316 µM, first compound 10 µM
[13] = second compound 1 µM, first compound 0.0316 µM
[14] = second compound 1 µM, first compound 0.1 µM
[15] = second compound 1 µM, first compound 0.316 µM
[16] = second compound 1 µM, first compound 1 µM
[17] = second compound 1 µM, first compound 3.16 µM
[18] = second compound 1 µM, first compound 10 µM
[19] = second compound 3.16 µM, first compound 0.0316 µM
[20] = second compound 3.16 µM, first compound 0.1 µM
[21] = second compound 3.16 µM, first compound 0.316 µM
[22] = second compound 3.16 µM, first compound 1 µM
[23] = second compound 3.16 µM, first compound 3.16 µM
[24] = second compound 3.16 µM, first compound 10 µM
[25] = second compound 10 µM, first compound 0.0316 µM
[26] = second compound 10 µM, first compound 0.1 µM
[27] = second compound 10 µM, first compound 0.316 µM
[28] = second compound 10 µM, first compound 1 µM
[29] = second compound 10 µM, first compound 3.16 µM
[30] = second compound 10 µM, first compound 10 µM

SMILES: C=CC(=O)N1CCN(c2nc(=O)n(-c3c(C)ccnc3C(C)C)c3nc(-c4c(O)cccc4F)c(F)cc23)C(C)C1 (stereo not given) + CC(C)NCC(C(=O)N1CCN(c2ncnc3c2C(C)CC3O)CC1)c1ccc(Cl)cc1
- IC50 (second compound 0.1 µM): 7190 nM
- IC50 (second compound 0.316 µM): < 31.6 nM
- IC50 (second compound 1 µM): < 31.6 nM
- IC50 (second compound 3.16 µM): < 31.6 nM
- IC50 (second compound 10 µM): < 31.6 nM
- viability, T/C [1]: 75.9%
- viability, T/C [2]: 80.2%
- viability, T/C [3]: 77.7%
- viability, T/C [4]: 76.3%
- viability, T/C [5]: 72.7%
- viability, T/C [6]: 41%
- viability, T/C [7]: 35.8%
- viability, T/C [8]: 39.4%
- viability, T/C [9]: 39.6%
- viability, T/C [10]: 38.7%
- viability, T/C [11]: 39.5%
- viability, T/C [12]: 26.2%
- viability, T/C [13]: 21.1%
- viability, T/C [14]: 19.1%
- viability, T/C [15]: 21.4%
- viability, T/C [16]: 23.8%
- viability, T/C [17]: 24.6%
- viability, T/C [18]: 16.9%
- viability, T/C [19]: 14.8%
- viability, T/C [20]: 17.1%
- viability, T/C [21]: 16.4%
- viability, T/C [22]: 18.2%
- viability, T/C [23]: 17%
- viability, T/C [24]: 11.2%
- viability, T/C [25]: 9.96%
- viability, T/C [26]: 10.9%
- viability, T/C [27]: 10.4%
- viability, T/C [28]: 10.8%
- viability, T/C [29]: 10.9%
- viability, T/C [30]: 6.35%

SMILES: CC(C)(C)c1cnc(CSc2cnc(NC(=O)C3CCNCC3)s2)o1 + CC(C)NCC(C(=O)N1CCN(c2ncnc3c2C(C)CC3O)CC1)c1ccc(Cl)cc1
- IC50 (second compound 0.1 µM): 168 nM
- IC50 (second compound 0.316 µM): 118 nM
- IC50 (second compound 1 µM): < 9.49 nM
- IC50 (second compound 3.16 µM): < 9.49 nM
- IC50 (second compound 10 µM): < 9.49 nM
- viability, T/C (second compound 0.1 µM, first compound 0.00949 µM): 74.8%
- viability, T/C (second compound 0.1 µM, first compound 0.03 µM): 92%
- viability, T/C (second compound 0.1 µM, first compound 0.0949 µM): 89.1%
- viability, T/C (second compound 0.1 µM, first compound 0.3 µM): 14.5%
- viability, T/C (second compound 0.1 µM, first compound 0.949 µM): 0.65%
- viability, T/C (second compound 0.1 µM, first compound 3 µM): 0.75%
- viability, T/C (second compound 0.316 µM, first compound 0.00949 µM): 49.5%
- viability, T/C (second compound 0.316 µM, first compound 0.03 µM): 50.8%
- viability, T/C (second compound 0.316 µM, first compound 0.0949 µM): 73.7%
- viability, T/C (second compound 0.316 µM, first compound 0.3 µM): 17.3%
- viability, T/C (second compound 0.316 µM, first compound 0.949 µM): 0.41%
- viability, T/C (second compound 0.316 µM, first compound 3 µM): 0.65%
- viability, T/C (second compound 1 µM, first compound 0.00949 µM): 22.3%
- viability, T/C (second compound 1 µM, first compound 0.03 µM): 30.2%
- viability, T/C (second compound 1 µM, first compound 0.0949 µM): 41.9%
- viability, T/C (second compound 1 µM, first compound 0.3 µM): 11.7%
- viability, T/C (second compound 1 µM, first compound 0.949 µM): 0.3%
- viability, T/C (second compound 1 µM, first compound 3 µM): 0.62%
- viability, T/C (second compound 3.16 µM, first compound 0.00949 µM): 18%
- viability, T/C (second compound 3.16 µM, first compound 0.03 µM): 22.6%
- viability, T/C (second compound 3.16 µM, first compound 0.0949 µM): 28.4%
- viability, T/C (second compound 3.16 µM, first compound 0.3 µM): 9.86%
- viability, T/C (second compound 3.16 µM, first compound 0.949 µM): 0.58%
- viability, T/C (second compound 3.16 µM, first compound 3 µM): 0.66%
- viability, T/C (second compound 10 µM, first compound 0.00949 µM): 11.3%
- viability, T/C (second compound 10 µM, first compound 0.03 µM): 11.4%
- viability, T/C (second compound 10 µM, first compound 0.0949 µM): 14.2%
- viability, T/C (second compound 10 µM, first compound 0.3 µM): 2.96%
- viability, T/C (second compound 10 µM, first compound 0.949 µM): 0.36%
- viability, T/C (second compound 10 µM, first compound 3 µM): 0.65%

SMILES: Cn1ncc(Cl)c1-c1cc(C(=O)NC(CN)Cc2cccc(F)c2)sc1Cl (stereo not given) + CC(C)NCC(C(=O)N1CCN(c2ncnc3c2C(C)CC3O)CC1)c1ccc(Cl)cc1
- IC50 (second compound 0.1 µM): 58.8 nM
- IC50 (second compound 0.316 µM): < 31.6 nM
- IC50 (second compound 1 µM): < 31.6 nM
- IC50 (second compound 3.16 µM): < 31.6 nM
- IC50 (second compound 10 µM): < 31.6 nM
- viability, T/C [1]: 62.6%
- viability, T/C [2]: 38.1%
- viability, T/C [3]: 25%
- viability, T/C [4]: 16.4%
- viability, T/C [5]: 8.41%
- viability, T/C [6]: 0.21%
- viability, T/C [7]: 36.4%
- viability, T/C [8]: 28.2%
- viability, T/C [9]: 19.7%
- viability, T/C [10]: 13.8%
- viability, T/C [11]: 8.71%
- viability, T/C [12]: 0.38%
- viability, T/C [13]: 20.7%
- viability, T/C [14]: 18.3%
- viability, T/C [15]: 17.6%
- viability, T/C [16]: 13.6%
- viability, T/C [17]: 8.68%
- viability, T/C [18]: 0.2%
- viability, T/C [19]: 15.7%
- viability, T/C [20]: 15.9%
- viability, T/C [21]: 15.9%
- viability, T/C [22]: 12.9%
- viability, T/C [23]: 6.61%
- viability, T/C [24]: 0.36%
- viability, T/C [25]: 10.6%
- viability, T/C [26]: 11.4%
- viability, T/C [27]: 9.32%
- viability, T/C [28]: 6.87%
- viability, T/C [29]: 4.93%
- viability, T/C [30]: 0.28%

SMILES: Cn1nccc1Nc1nccc(-c2ccn(C(CO)c3ccc(Cl)c(F)c3)c(=O)c2)n1 (stereo not given) + CC(C)NCC(C(=O)N1CCN(c2ncnc3c2C(C)CC3O)CC1)c1ccc(Cl)cc1
- IC50 (second compound 0.1 µM): 5040 nM
- IC50 (second compound 0.316 µM): < 31.6 nM
- IC50 (second compound 1 µM): < 31.6 nM
- IC50 (second compound 3.16 µM): < 31.6 nM
- IC50 (second compound 10 µM): < 31.6 nM
- viability, T/C [1]: 71.3%
- viability, T/C [2]: 68%
- viability, T/C [3]: 67.6%
- viability, T/C [4]: 68.3%
- viability, T/C [5]: 62.3%
- viability, T/C [6]: 31.9%
- viability, T/C [7]: 36.5%
- viability, T/C [8]: 36%
- viability, T/C [9]: 37.7%
- viability, T/C [10]: 36.9%
- viability, T/C [11]: 29.7%
- viability, T/C [12]: 16.6%
- viability, T/C [13]: 18.4%
- viability, T/C [14]: 18.7%
- viability, T/C [15]: 17.6%
- viability, T/C [16]: 16.8%
- viability, T/C [17]: 15.2%
- viability, T/C [18]: 7.24%
- viability, T/C [19]: 15.6%
- viability, T/C [20]: 12.6%
- viability, T/C [21]: 10.6%
- viability, T/C [22]: 9.52%
- viability, T/C [23]: 8.01%
- viability, T/C [24]: 4.41%
- viability, T/C [25]: 9.59%
- viability, T/C [26]: 8.62%
- viability, T/C [27]: 7.34%
- viability, T/C [28]: 7.5%
- viability, T/C [29]: 6.98%
- viability, T/C [30]: 2.15%

SMILES: Cn1ncnc1[C@H]1c2n[nH]c(=O)c3cc(F)cc(c23)N[C@@H]1c1ccc(F)cc1 + CC(C)NCC(C(=O)N1CCN(c2ncnc3c2C(C)CC3O)CC1)c1ccc(Cl)cc1
- IC50 (second compound 0.1 µM): > 100 nM
- IC50 (second compound 0.316 µM): < 0.316 nM
- IC50 (second compound 1 µM): < 0.316 nM
- IC50 (second compound 3.16 µM): < 0.316 nM
- IC50 (second compound 10 µM): < 0.316 nM
- viability, T/C (second compound 0.1 µM, first compound 0.000316 µM): 74.2%
- viability, T/C (second compound 0.1 µM, first compound 0.001 µM): 78.8%
- viability, T/C (second compound 0.1 µM, first compound 0.00316 µM): 60.9%
- viability, T/C (second compound 0.1 µM, first compound 0.01 µM): 69.4%
- viability, T/C [1]: 65.4%
- viability, T/C [2]: 58.8%
- viability, T/C (second compound 0.316 µM, first compound 0.000316 µM): 34.5%
- viability, T/C (second compound 0.316 µM, first compound 0.001 µM): 39.5%
- viability, T/C (second compound 0.316 µM, first compound 0.00316 µM): 41.2%
- viability, T/C (second compound 0.316 µM, first compound 0.01 µM): 38.4%
- viability, T/C [7]: 38.3%
- viability, T/C [8]: 33.2%
- viability, T/C (second compound 1 µM, first compound 0.000316 µM): 22.9%
- viability, T/C (second compound 1 µM, first compound 0.001 µM): 21.5%
- viability, T/C (second compound 1 µM, first compound 0.00316 µM): 20.5%
- viability, T/C (second compound 1 µM, first compound 0.01 µM): 20.4%
- viability, T/C [13]: 20.9%
- viability, T/C [14]: 19%
- viability, T/C (second compound 3.16 µM, first compound 0.000316 µM): 19%
- viability, T/C (second compound 3.16 µM, first compound 0.001 µM): 17.1%
- viability, T/C (second compound 3.16 µM, first compound 0.00316 µM): 15.1%
- viability, T/C (second compound 3.16 µM, first compound 0.01 µM): 15.4%
- viability, T/C [19]: 12.8%
- viability, T/C [20]: 16.1%
- viability, T/C (second compound 10 µM, first compound 0.000316 µM): 10.3%
- viability, T/C (second compound 10 µM, first compound 0.001 µM): 10.1%
- viability, T/C (second compound 10 µM, first compound 0.00316 µM): 10.3%
- viability, T/C (second compound 10 µM, first compound 0.01 µM): 9.69%
- viability, T/C [25]: 8.59%
- viability, T/C [26]: 9.45%
